These results are taken from ChEMBL document CHEMBL2074424, “Breast cancer resistance protein directly confers SN-38 resistance of lung cancer cells” (Biochem Biophys Res Commun, 2001).

The target of the data set is T1, Broad substrate specificity ATP-binding cassette transporter ABCG2 (Homo sapiens, UniProt Q9UNQ0).
T1 sequence (Q9UNQ0 whole entry): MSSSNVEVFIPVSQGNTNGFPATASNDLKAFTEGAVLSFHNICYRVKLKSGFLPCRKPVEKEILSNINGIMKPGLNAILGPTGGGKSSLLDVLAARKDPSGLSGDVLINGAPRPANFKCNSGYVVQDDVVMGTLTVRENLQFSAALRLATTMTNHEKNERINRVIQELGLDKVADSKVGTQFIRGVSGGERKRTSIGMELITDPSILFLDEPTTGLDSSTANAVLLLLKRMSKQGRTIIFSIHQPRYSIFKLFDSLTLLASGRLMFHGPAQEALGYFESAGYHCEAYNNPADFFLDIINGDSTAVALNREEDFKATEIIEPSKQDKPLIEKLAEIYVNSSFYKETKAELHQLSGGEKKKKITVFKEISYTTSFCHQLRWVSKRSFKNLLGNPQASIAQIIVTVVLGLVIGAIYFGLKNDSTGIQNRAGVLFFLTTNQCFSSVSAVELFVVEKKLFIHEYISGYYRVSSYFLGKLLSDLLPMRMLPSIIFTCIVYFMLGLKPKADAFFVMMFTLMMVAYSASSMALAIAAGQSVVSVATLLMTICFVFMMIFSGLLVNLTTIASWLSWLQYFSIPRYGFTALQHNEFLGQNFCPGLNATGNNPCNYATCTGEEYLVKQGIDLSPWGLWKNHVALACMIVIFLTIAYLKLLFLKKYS
The data set is described as follows: TP_TRANSPORTER: inhibition of accumulation by antisense of BCRP in PC-6/SN2-5,PC-6/SN2-5H cells. The class given is functional, cell-based.

In the case of `CCc1c2c(nc3ccc(O)cc13)-c1cc3c(c(=O)n1C2)COC(=O)[C@]3(O)CC` [7-ETHYL-10-HYDROXYCAMPTOTHECIN], the Activity result was “substrate [+]”.
